Test results reported in US7390923B2, “Propionamide derivatives useful as androgen receptor modulators” (Orion Corporation, priority 2003, dated 2008).

How the values were obtained:
androgen receptor (AR) = molecular target: T1, androgen receptor (AR) (Rattus norvegicus, UniProt P15207); assay: AR binding assay, competition with [3H]-mibolerone binding in rat ventral prostate cytosol; conditions: 1 nM [3H]-mibolerone, overnight at 0° C.
T1 construct: Ventral prostates were obtained form rats castrated 24 h prior to sacrifice; from tissue; host or cells: rat ventral prostate cytosol (castrated rats, charcoal-treated)
T1 sequence (P15207 1-902): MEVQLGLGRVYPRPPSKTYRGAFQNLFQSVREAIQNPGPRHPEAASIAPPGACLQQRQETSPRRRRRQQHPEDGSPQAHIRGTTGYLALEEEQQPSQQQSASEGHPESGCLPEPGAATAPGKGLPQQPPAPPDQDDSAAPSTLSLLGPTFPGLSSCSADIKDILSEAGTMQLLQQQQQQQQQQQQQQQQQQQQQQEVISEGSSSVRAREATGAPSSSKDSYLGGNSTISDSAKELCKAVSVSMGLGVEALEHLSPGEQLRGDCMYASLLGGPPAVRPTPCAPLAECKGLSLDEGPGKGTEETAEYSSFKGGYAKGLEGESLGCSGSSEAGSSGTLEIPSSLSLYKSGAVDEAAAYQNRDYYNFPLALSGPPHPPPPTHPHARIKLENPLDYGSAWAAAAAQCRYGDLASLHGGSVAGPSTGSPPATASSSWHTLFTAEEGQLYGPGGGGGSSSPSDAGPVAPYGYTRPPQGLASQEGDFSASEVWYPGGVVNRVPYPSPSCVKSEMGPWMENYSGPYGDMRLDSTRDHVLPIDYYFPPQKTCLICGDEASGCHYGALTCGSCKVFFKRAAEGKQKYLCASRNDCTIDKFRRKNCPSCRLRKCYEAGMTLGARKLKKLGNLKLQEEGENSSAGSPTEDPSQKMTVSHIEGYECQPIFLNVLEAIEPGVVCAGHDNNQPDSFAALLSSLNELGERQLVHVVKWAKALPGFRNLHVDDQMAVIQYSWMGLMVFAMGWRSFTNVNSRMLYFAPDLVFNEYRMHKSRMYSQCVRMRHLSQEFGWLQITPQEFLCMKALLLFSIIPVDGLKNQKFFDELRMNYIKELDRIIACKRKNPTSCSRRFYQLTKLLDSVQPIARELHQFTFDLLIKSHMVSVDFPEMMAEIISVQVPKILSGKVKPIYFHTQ
Procedure: Ventral prostates were obtained form rats castrated 24 h prior to sacrifice. Fresh prostate was minced and washed with Buffer A (Schilling and Liao, Prostate, 5:581-588, 1984). The minces were then homogenized in 3× volume of Buffer A containing protease inhibitors (Complete, Mini, EDTA-free Roche). The homogenate was centrifuged at 30000 g for 30 min. The resultant supernatants were treated with 1×volume of dextran-coated charcoal solution (12.5 g activated charcoal, 12.5 g dextran per liter of buffer A) to remove endogenous steroids. The samples were incubated for 5 min and centrifuged at 16000 g for 10 min. Aliquots of the charcoal-treated cytosol were taken for androgen receptor assays. All procedures were carried out at 0-4° C.
Cytosol androgen receptor concentration was determined as described (Isomaa et al., Endocrinology, 111: 833-843, 1982) with minor modifications. Cytosol preparations were prepared as described above, and bound and free steroids were separated by treatment with an equal volume of dextran-charcoal suspension for 5 min at 4° C. followed by centrifugation at 16000 g for 10 min. Bound radioactivity was determined by counting supernatant fractions in 1 ml of OptiPhase HiSafe3 or OptiPhase Supermix (PerkinElmer).
Cytosol preparations were labelled with 1 nM [^3H]-mibolerone overnight at 0° C. (total). To determine AR binding activity of the compounds of the present invention (test compounds), the ability of test compounds to compete with [^3H]7α,17α-dimethyl-17β-hydroxy-4-estren-3-one ([^3H]-mibolerone) binding was studied. 1 nM [^3H]-mibolerone and test compounds in two concentrations (0.2 and 2 uM) were incubated overnight at 0° C. To determine non-specific binding, parallel incubations were carried out using 1 nM concentration [^3H]-mibolerone with 500-fold molar excess of unlabelled testosterone. Two to four replicates were used for each sample. After incubation, bound and free steroids were separated as described above and bound radioactivity was determined. The ability of the test compounds to bind AR is reported as reduction in bound radioactivity obtained with 1 nM [^3H]-mibolerone. The results (% inhibition) were calculated as: % inhibition=100−(100×(averagetest compound/averagetotal)).

AR = molecular target: T2, AR (Rattus norvegicus, UniProt P15207); assay: AR agonism and antagonism in immature male rats, 3-day assay, relative organ weights
T2 sequence (P15207 1-902): T1 sequence (P15207 1-902)
Procedure: The title compound of Example 3, abbreviated here as compound A, was further studied in in vivo experiment. The agonism and antagonism of the compound with subcutaneous dosing was tested in immature male Spraque Dawley rat 3-day assay by analyzing the relative weights of ventral prostate, seminal vesicle, and levator ani-muscle. Testosterone propionate was used as a reference compound.
Testosterone propionate (abbreviated here TP) and compound A were first dissolved into DMSO and then into the vehicle sesame oil. Sprague-Dawley untreated male rats (18-19 days old) weighing about 50 g were used in the experiment. Rats were weighed and randomly distributed into five groups, with 5 animals per group (Table 1). Compound A (doses 2 and 20 mg/kg) and testosterone propionate (dose 5 mg/kg) were given subcutaneously (s.c.) into the neck/back of the animals at a constant volume of 100 microl dosing solution/animal/day. The animals were dosed once daily for three days, and clinical signs were recorded during dosing. At the end of the study, animals were weighed and anaesthetised by CO2 asphyxiation. Ventral prostate, seminal vesicles, and levator ani-muscle were dissected out, chilled, and weighed. For statistical analysis, the weights of all organs were normalized to body weights, and analyzed for statistical significant difference by single-factor ANOVA.
In the Figure, “a” means agonism, p<0.01 compared to vehicle group, “b” means antagonism, p<0.05 compared to testosterone group, bars represent mean±SEM.

[1] = 20 mg/kg s.c. once daily for three days, immature male rat

For `CC(=O)Nc1ccc(OC[C@](C)(O)C(=O)Nc2ccc([N+](=O)[O-])c(C)c2)cc1` [Example 3, (2S)-3-(4-Acetylaminophenoxy)-2-hydroxy-2-methyl-N-(3-methyl-4-nitrophenyl)propionamide], the inhibition at 0.2 µM (androgen receptor (AR); test compound 0.2 μM) was 103%, the inhibition at 2 µM (androgen receptor (AR); test compound 2.0 μM) was 115% and the “relative weight of levator ani-muscle” value (AR; [1]) was “clearly increased”. For the same compound, the “relative weight of the prostate” value (AR; [1]) was “only minimally”, the “antagonistic activity in seminal vesicle” value (AR; TP 5 mg/kg + compound A 20 mg/kg s.c., p<0.05 compared to testosterone group) was “significant antagonistic activity” and the “androgenic and anabolic activity” value (AR; s.c. 2 and 20 mg/kg, immature male rat, FIG. 1) was “shows androgenic and anabolic activity”. For the same compound, the “effect on the body weights” value (AR; s.c. once daily for three days, immature male rat, data not shown) was “Neither testosterone propionate nor compound A had any effect” and the “tissue selectivity compared with testosterone propionate” value (AR; s.c., immature male rat) was “showed tissue selectivity”.
